Source: patent publication US9161935B2 (TEVA PHARMACEUTICAL INDUSTRIES, LTD., priority 2012, dated 2015)

Tested on: Sub-Populations of Crohn's Disease Patients
Assay: CD-LAQ-201 sub-populations of Crohn's disease patients (Example 2)
Format: in vivo, human
Procedure: This study was conducted according and with similar requirements as presented in Example 1. […] Patients, who have received anti-TNFαs in the past, tend to reflect a more severe, refractory segment of the Crohn's disease population. […] This sub-cohort analysis describes remission rates at week 8 for patients who were classified as having a predominantly inflammatory disease (based on the Montreal classifications) versus those that have a fibrostenotic or penetrating disease.

[1] = Laq 1.0 mg, Previous use of anti-TNFαs YES, week 8
[2] = Laq 1.5 mg, Fibrostenotic, week 8
[3] = Laq 1.5 mg, Inflammatory, week 8
[4] = Laq 1.5 mg, Oral steroids on Baseline NO
[5] = Laq 1.5 mg, Oral steroids on Baseline NO, week 8
[6] = Laq 1.5 mg, Oral steroids on Baseline YES
[7] = Laq 1.5 mg, Oral steroids on Baseline YES, week 8
[8] = Laq 1.5 mg, Previous Operations NO
[9] = Laq 1.5 mg, Previous Operations NO, week 8
[10] = Laq 1.5 mg, Previous Operations YES
[11] = Laq 1.5 mg, Previous Operations YES, week 8
[12] = Laq 1.5 mg, Previous use of anti-TNFαs NO
[13] = Laq 1.5 mg, Previous use of anti-TNFαs NO, week 8
[14] = Laq 1.5 mg, Previous use of anti-TNFαs YES
[15] = Laq 1.5 mg, Previous use of anti-TNFαs YES, week 8
[16] = Laq 2.0 mg, Fibrostenotic, week 8
[17] = Laq 2.0 mg, Inflammatory, week 8
[18] = Laq 2.0 mg, Oral steroids on Baseline NO
[19] = Laq 2.0 mg, Oral steroids on Baseline NO, week 8
[20] = Laq 2.0 mg, Oral steroids on Baseline YES
[21] = Laq 2.0 mg, Oral steroids on Baseline YES, week 8
[22] = Laq 2.0 mg, Previous Operations NO
[23] = Laq 2.0 mg, Previous Operations NO, week 8
[24] = Laq 2.0 mg, Previous Operations YES
[25] = Laq 2.0 mg, Previous Operations YES, week 8
[26] = Laq 2.0 mg, Previous use of anti-TNFαs NO
[27] = Laq 2.0 mg, Previous use of anti-TNFαs NO, week 8
[28] = Laq 2.0 mg, Previous use of anti-TNFαs YES
[29] = Laq 2.0 mg, Previous use of anti-TNFαs YES, week 8

CCN(C(=O)c1c(O)c2c(Cl)cccc2n(C)c1=O)c1ccccc1 [laquinimod]
Responders100 - N (%): N (Laq 1.0 mg, Previous use of anti-TNFαs YES): 5
Remission - N (%): % [1]: 16.7%
Remission - N (%): N [1]: 3
CDAI Change from Baseline - Mean ± SD (Laq 1.5 mg, Fibrostenotic): −51.8
Responders70 - N (%): % (Laq 1.5 mg, Fibrostenotic): 27.8%
Responders70 - N (%): N (Laq 1.5 mg, Fibrostenotic): 5
Responders100 - N (%): % (Laq 1.5 mg, Fibrostenotic): 27.8%
Responders100 - N (%): N (Laq 1.5 mg, Fibrostenotic): 5
Remission - N (%): % [2]: 11.1%
Remission - N (%): N [2]: 2
CDAI Change from Baseline - Mean ± SD (Laq 1.5 mg, Inflammatory): −43.8
Responders70 - N (%): % (Laq 1.5 mg, Inflammatory): 36.4%
Responders70 - N (%): N (Laq 1.5 mg, Inflammatory): 4
Responders100 - N (%): % (Laq 1.5 mg, Inflammatory): 27.3%
Responders100 - N (%): N (Laq 1.5 mg, Inflammatory): 3
Remission - N (%): % [3]: 18.2%
Remission - N (%): N [3]: 2
CDAI Change from Baseline - Mean ± SD [4]: −46.8
Responders70 - N (%): % [4]: 25.0%
Responders70 - N (%): N [4]: 5
Responders100 - N (%): % [4]: 20.0%
Responders100 - N (%): N [4]: 4
Remission - N (%): % [5]: 10.0%
Remission - N (%): N [5]: 2
CDAI Change from Baseline - Mean ± SD [6]: −52.6
Responders70 - N (%): % [6]: 44.4%
Responders70 - N (%): N [6]: 4
Responders100 - N (%): % [6]: 44.4%
Responders100 - N (%): N [6]: 4
Remission - N (%): % [7]: 22.2%
Remission - N (%): N [7]: 2
CDAI Change from Baseline - Mean ± SD [8]: −68.3
Responders70 - N (%): % [8]: 43.8%
Responders70 - N (%): N [8]: 7
Responders100 - N (%): % [8]: 37.5%
Responders100 - N (%): N [8]: 6
Remission - N (%): % [9]: 25.0%
Remission - N (%): N [9]: 4
CDAI Change from Baseline - Mean ± SD [10]: −26.0
Responders70 - N (%): % [10]: 15.4%
Responders70 - N (%): N [10]: 2
Responders100 - N (%): % [10]: 15.4%
Responders100 - N (%): N [10]: 2
Remission - N (%): % [11]: 0.0%
Remission - N (%): N [11]: 0
CDAI Change from Baseline - Mean ± SD [12]: −95.5
Responders70 - N (%): % [12]: 54.5%
Responders70 - N (%): N [12]: 6
Responders100 - N (%): % [12]: 45.5%
Responders100 - N (%): N [12]: 5
Remission - N (%): % [13]: 27.3%
Remission - N (%): N [13]: 3
CDAI Change from Baseline - Mean ± SD [14]: −18.4
Responders70 - N (%): % [14]: 16.7%
Responders70 - N (%): N [14]: 3
Responders100 - N (%): % [14]: 16.7%
Responders100 - N (%): N [14]: 3
Remission - N (%): % [15]: 5.6%
Remission - N (%): N [15]: 1
CDAI Change from Baseline - Mean ± SD (Laq 2.0 mg, Fibrostenotic): −40.7
Responders70 - N (%): % (Laq 2.0 mg, Fibrostenotic): 22.2%
Responders70 - N (%): N (Laq 2.0 mg, Fibrostenotic): 4
Responders100 - N (%): % (Laq 2.0 mg, Fibrostenotic): 22.2%
Responders100 - N (%): N (Laq 2.0 mg, Fibrostenotic): 4
Remission - N (%): % [16]: 16.7%
Remission - N (%): N [16]: 3
CDAI Change from Baseline - Mean ± SD (Laq 2.0 mg, Inflammatory): −33.1
Responders70 - N (%): % (Laq 2.0 mg, Inflammatory): 36.4%
Responders70 - N (%): N (Laq 2.0 mg, Inflammatory): 4
Responders100 - N (%): % (Laq 2.0 mg, Inflammatory): 36.4%
Responders100 - N (%): N (Laq 2.0 mg, Inflammatory): 4
Remission - N (%): % [17]: 18.2%
Remission - N (%): N [17]: 2
CDAI Change from Baseline - Mean ± SD [18]: −39.7
Responders70 - N (%): % [18]: 29.2%
Responders70 - N (%): N [18]: 7
Responders100 - N (%): % [18]: 29.2%
Responders100 - N (%): N [18]: 7
Remission - N (%): % [19]: 16.7%
Remission - N (%): N [19]: 4
CDAI Change from Baseline - Mean ± SD [20]: −20.3
Responders70 - N (%): % [20]: 20.0%
Responders70 - N (%): N [20]: 1
Responders100 - N (%): % [20]: 20.0%
Responders100 - N (%): N [20]: 1
Remission - N (%): % [21]: 20.0%
Remission - N (%): N [21]: 1
CDAI Change from Baseline - Mean ± SD [22]: −54.6
Responders70 - N (%): % [22]: 37.5%
Responders70 - N (%): N [22]: 6
Responders100 - N (%): % [22]: 37.5%
Responders100 - N (%): N [22]: 6
Remission - N (%): % [23]: 18.8%
Remission - N (%): N [23]: 3
CDAI Change from Baseline - Mean ± SD [24]: −14.2
Responders70 - N (%): % [24]: 15.4%
Responders70 - N (%): N [24]: 2
Responders100 - N (%): % [24]: 15.4%
Responders100 - N (%): N [24]: 2
Remission - N (%): % [25]: 15.4%
Remission - N (%): N [25]: 2
CDAI Change from Baseline - Mean ± SD [26]: −56.4
Responders70 - N (%): % [26]: 55.6%
Responders70 - N (%): N [26]: 10
Responders100 - N (%): % [26]: 33.3%
Responders100 - N (%): N [26]: 6
Remission - N (%): % [27]: 27.8%
Remission - N (%): N [27]: 5
CDAI Change from Baseline - Mean ± SD [28]: −102.2
Responders70 - N (%): % [28]: 50.0%
Responders70 - N (%): N [28]: 6
Responders100 - N (%): % [28]: 50.0%
Responders100 - N (%): N [28]: 6
Remission - N (%): % [29]: 25.0%
Remission - N (%): N [29]: 3
effect of oral steroids together with laquinimod on remission at week 8 (laquinimod 0.5 mg): potential synergistic effect
effect on remission at week 8 with or without previous operations (laquinimod 0.5 mg): had an effect over placebo in both sub-populations
remission in predominantly inflammatory disease vs the complementary cohort (laquinimod 0.5 mg and 1 mg, week 8): may work better
